This is an account of results in ChEMBL document CHEMBL1201862, “PubChem BioAssay data set” (2004).

What is called AC50 is the midpoint of the concentration-response curve, whichever way the signal moves. A word on the IC50: it is the midpoint of a concentration-inhibition curve. As usually defined, the GI50 is the concentration giving 50% growth inhibition. One may read the EC50 as the midpoint of the concentration-response curve.

Molecules are shown by their SMILES. Active and inactive are the calls of the source.

Chain of Cytochrome P450 2C9 (P11712 whole entry): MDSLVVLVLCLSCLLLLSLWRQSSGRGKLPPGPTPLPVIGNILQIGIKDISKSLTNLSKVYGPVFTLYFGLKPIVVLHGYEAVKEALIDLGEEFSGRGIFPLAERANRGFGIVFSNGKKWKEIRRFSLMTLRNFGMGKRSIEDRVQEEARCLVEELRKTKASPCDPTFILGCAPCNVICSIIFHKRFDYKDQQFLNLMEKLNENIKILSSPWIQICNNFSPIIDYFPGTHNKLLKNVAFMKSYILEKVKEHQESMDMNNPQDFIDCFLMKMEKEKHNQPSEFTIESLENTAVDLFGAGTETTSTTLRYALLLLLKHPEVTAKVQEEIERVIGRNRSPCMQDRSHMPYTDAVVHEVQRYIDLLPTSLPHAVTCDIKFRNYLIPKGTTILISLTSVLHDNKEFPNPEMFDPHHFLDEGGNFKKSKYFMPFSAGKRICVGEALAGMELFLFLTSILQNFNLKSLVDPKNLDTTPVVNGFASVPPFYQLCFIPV

One data set concerns the target Cytochrome P450 2C9 (Homo sapiens, UniProt P11712).
Assay: not given
Conditions: not given
Turning to `FC(F)(F)c1ccccc1-c1ccc2ncnc(NC3CCNCC3)c2c1`, the AC50 entry is “inconclusive”.

In a further data set the target is T1, Cytochrome P450 1A2 (Homo sapiens, UniProt P05177).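 Further: PubChem cytochrome P450 panel assay, CYP1A2 panel member.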
T1 sequence (P05177 whole entry): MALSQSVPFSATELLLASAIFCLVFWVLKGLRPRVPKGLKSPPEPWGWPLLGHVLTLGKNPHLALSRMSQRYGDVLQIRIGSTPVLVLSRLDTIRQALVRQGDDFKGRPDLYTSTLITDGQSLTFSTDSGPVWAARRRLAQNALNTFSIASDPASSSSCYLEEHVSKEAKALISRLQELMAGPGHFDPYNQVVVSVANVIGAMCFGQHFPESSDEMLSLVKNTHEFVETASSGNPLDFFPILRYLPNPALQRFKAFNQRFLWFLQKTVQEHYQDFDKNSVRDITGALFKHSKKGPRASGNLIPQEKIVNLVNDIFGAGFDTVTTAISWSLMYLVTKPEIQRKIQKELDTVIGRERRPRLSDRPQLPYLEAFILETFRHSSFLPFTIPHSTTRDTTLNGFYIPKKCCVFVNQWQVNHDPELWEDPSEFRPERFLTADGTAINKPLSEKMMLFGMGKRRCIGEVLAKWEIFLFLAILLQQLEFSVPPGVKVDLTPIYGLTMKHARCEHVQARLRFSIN
Assay: not given
Conditions: not given
Take `FC(F)(F)c1ccccc1-c1ccc2ncnc(NC3CCNCC3)c2c1`: the AC50 is 20 µM (inconclusive).

For a further data set, the target named is T2, Protein skinhead-1 (Caenorhabditis elegans, UniProt P34707).
T2 sequence (P34707 whole entry): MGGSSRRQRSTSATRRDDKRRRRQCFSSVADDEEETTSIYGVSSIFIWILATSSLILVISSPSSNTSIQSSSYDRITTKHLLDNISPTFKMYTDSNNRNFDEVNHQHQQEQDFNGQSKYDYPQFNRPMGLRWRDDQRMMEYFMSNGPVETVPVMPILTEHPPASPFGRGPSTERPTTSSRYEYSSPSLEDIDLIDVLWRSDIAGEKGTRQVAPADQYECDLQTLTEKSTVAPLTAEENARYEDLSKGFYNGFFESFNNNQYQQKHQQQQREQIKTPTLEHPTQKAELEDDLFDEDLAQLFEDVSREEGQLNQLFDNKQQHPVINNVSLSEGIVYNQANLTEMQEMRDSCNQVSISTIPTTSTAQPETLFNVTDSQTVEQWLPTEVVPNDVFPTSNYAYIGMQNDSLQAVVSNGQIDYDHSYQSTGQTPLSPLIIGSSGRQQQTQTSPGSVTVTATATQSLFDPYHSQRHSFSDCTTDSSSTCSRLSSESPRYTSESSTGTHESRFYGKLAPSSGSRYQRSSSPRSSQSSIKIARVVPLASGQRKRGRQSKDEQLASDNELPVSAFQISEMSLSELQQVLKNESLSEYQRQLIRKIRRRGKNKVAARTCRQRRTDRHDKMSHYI
Assay: not given
The class given is functional.
Conditions: not given
Turning to `O=C(/N=C1/N=C2C=CC(Br)=CN2Cc2ccccc21)c1ccc([N+](=O)[O-])cc1[N+](=O)[O-]`, the IC50 is 28.3 µM (active).

On to `CCOC(=O)Nc1nc(-c2ccc(Cl)cc2Cl)cs1`, for which the IC50 was 21.4 µM (active).

As for `COc1ccc([N+](=O)[O-])cc1NC(=O)C(C)OC(=O)CSC(C)C(=O)Nc1cc(C)on1` (configuration not stated), the IC50 was > 100 µM (inactive).

On to `O=S(=O)(c1cccc2c(S(=O)(=O)N3CCCC3)cccc12)N1CCCC1`, for which the IC50 was > 100 µM (inactive).

As to `CCOC(=O)c1c(C)[nH]c(C(=O)COC(=O)c2oc3ccc(OC)cc3c2C)c1C`, the IC50 is > 100 µM (inactive).

A further data set deals with P388/ADR. As to the kind of experiment: cells. The class given is functional. Conditions: Mus musculus.
Turning to `COc1ccc(/C=C\c2cc(OC)c(OC)c(OC)c2)c(O)c1O` [COMBRETASTATIN A-1], the GI50 is 0.139 µM (active).

With `CCC1=CC2CN3CCc4c([nH]c5ccccc45)C(C(=O)OC)(C2)C13` (configuration not stated), the GI50 is 30.1 µM (inactive).

For the molecule `NC(=O)NO` [HYDROXYUREA], the GI50 was 59.3 µM (inactive).

`Nc1ncnc2c(C3OC(CO)C(O)C3O)n[nH]c12` (configuration not stated): the GI50 was 5.6 µM (inactive).

As for `C(=N/NC1=NCCN1)/c1c2ccccc2c(/C=N\NC2=NCCN2)c2ccccc12`, the GI50 was 14.6 µM (inactive).

With `COc1cccc2c1C(=O)c1c(O)c3c(c(O)c1C2=O)C[C@](O)(C(=O)CO)CC3OC1CC(N)C(OC2CCCCO2)C(C)O1` (some centres not stated), the GI50 is 3.14 µM (inactive).

For the molecule `O=C(O)Cc1cccc2c(=O)cc(-c3ccccc3)oc12` [MITOFLAXONE], the GI50 was > 79.3 µM (inactive).

In the case of `O=C1NC2(CCCCC2)C(=O)N1CCN(CCCl)CCCl` [SPIROMUSTINE], the GI50 is 29.6 µM (inactive).

On to `NC1=NC(c2ccccc2)CC(c2cc(Cl)cc(Br)c2O)=N1` (configuration not stated), for which the GI50 is 3.87 µM (inactive).

Another data set deals with P388. The data set can be described thus: cells. In kind it is functional. Conditions: Mus musculus.
`COc1ccc(/C=C\c2cc(OC)c(OC)c(OC)c2)c(O)c1O` [COMBRETASTATIN A-1]: the GI50 is 0.0525 µM (active).

Take `CCC1=CC2CN3CCc4c([nH]c5ccccc45)C(C(=O)OC)(C2)C13` (configuration not stated): the GI50 was 21 µM (inactive).

Take `NC(=O)NO` [HYDROXYUREA]: the GI50 was 69.8 µM (inactive).

Regarding `Nc1ncnc2c(C3OC(CO)C(O)C3O)n[nH]c12` (configuration not stated), the GI50 is 10.2 µM (inactive).

Consider `C(=N/NC1=NCCN1)/c1c2ccccc2c(/C=N\NC2=NCCN2)c2ccccc12`, for which the GI50 is 0.000861 µM (active).

Regarding `COc1cccc2c1C(=O)c1c(O)c3c(c(O)c1C2=O)C[C@](O)(C(=O)CO)CC3OC1CC(N)C(OC2CCCCO2)C(C)O1` (some centres not stated), the 50% growth inhibitory concentration (GI50) was < 0.01 µM (active).

As to `O=C(O)Cc1cccc2c(=O)cc(-c3ccccc3)oc12` [MITOFLAXONE], the GI50 was 93.8 µM (inactive).

On to `O=C1NC2(CCCCC2)C(=O)N1CCN(CCCl)CCCl` [SPIROMUSTINE], for which the GI50 is 30.2 µM (inactive).

Consider `NC1=NC(c2ccccc2)CC(c2cc(Cl)cc(Br)c2O)=N1` (configuration not stated), for which the GI50 is 2.9 µM (inactive).

For a further data set, the target named is Genome polyprotein (dengue virus type 2, UniProt P29990). The data set can be described thus: flavivirus cap methylation enzyme inhibition – biochemical, confirmation dose response, primary screen (AID 588689). In kind it is functional.
Chain of Genome polyprotein (P29990 2492-3391 limits assumed): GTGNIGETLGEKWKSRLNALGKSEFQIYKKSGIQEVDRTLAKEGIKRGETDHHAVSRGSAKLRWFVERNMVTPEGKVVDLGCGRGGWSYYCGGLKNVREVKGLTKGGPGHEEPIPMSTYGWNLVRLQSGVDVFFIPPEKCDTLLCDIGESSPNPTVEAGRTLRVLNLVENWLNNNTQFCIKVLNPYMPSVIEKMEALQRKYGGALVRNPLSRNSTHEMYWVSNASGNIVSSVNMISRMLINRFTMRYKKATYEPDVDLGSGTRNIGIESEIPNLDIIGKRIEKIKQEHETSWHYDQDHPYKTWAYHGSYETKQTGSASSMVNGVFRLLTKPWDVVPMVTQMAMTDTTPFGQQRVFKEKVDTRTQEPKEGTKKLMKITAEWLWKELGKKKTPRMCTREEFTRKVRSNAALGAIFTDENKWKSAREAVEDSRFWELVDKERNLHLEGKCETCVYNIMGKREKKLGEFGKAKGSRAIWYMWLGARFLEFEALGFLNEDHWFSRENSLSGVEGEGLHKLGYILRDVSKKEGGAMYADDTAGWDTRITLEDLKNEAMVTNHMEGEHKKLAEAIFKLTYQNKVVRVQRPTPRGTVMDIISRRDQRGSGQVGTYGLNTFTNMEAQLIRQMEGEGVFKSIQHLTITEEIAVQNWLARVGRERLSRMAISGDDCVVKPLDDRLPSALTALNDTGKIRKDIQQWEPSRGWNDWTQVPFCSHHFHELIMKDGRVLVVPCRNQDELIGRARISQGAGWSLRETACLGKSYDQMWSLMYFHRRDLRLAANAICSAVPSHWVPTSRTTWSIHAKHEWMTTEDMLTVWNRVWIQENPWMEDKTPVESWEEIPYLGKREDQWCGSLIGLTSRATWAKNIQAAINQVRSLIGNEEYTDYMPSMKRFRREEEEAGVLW
Conditions: not given
In the case of `O=C(O)CN1C(=O)/C(=C\c2cccc(OCc3ccc(Cl)cc3)c2)SC1=S`, the IC50 is 39.5 µM (active).

System in another data set: not listed separately
As to the kind of experiment: Trypanosoma cruzi growth suppression in host cells – NIH3T3 host cells, beta-gal luminescence, confirmation (AID 2044).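 Further: intracellular parasites grown in NIH/3T3 mouse fibroblasts as host cells; luminescent beta-galactosidase reporter signal from transgenic T. cruzi replicating inside host cells; inhibitors lower the luminescence signal.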 The class given is functional, cell-based.
Conditions: not given
Regarding `O=C(/N=C1/N=C2C=CC(Br)=CN2Cc2ccccc21)c1ccc([N+](=O)[O-])cc1[N+](=O)[O-]`, the EC50 is 1.39 µM (active).

For a further data set, the system named is SN12K1. The data set can be described thus: cells. In kind it is functional. The note with it: Homo sapiens.
Turning to `COc1ccc(/C=C\c2cc(OC)c(OC)c(OC)c2)c(O)c1O` [COMBRETASTATIN A-1], the GI50 was 0.05 µM (active).

On to `CCC1=CC2CN3CCc4c([nH]c5ccccc45)C(C(=O)OC)(C2)C13` (configuration not stated), for which the GI50 was 17.7 µM (inactive).

As for `NC(=O)NO` [HYDROXYUREA], the GI50 was 173 µM (inactive).

Turning to `Nc1ncnc2c(C3OC(CO)C(O)C3O)n[nH]c12` (configuration not stated), the GI50 is 0.176 µM (active).

As to `C(=N/NC1=NCCN1)/c1c2ccccc2c(/C=N\NC2=NCCN2)c2ccccc12`, the GI50 was 0.0284 µM (active).

`COc1cccc2c1C(=O)c1c(O)c3c(c(O)c1C2=O)C[C@](O)(C(=O)CO)CC3OC1CC(N)C(OC2CCCCO2)C(C)O1` (some centres not stated): the GI50 is < 0.01 µM (active).

Regarding `O=C(O)Cc1cccc2c(=O)cc(-c3ccccc3)oc12` [MITOFLAXONE], the GI50 was > 250 µM (inactive).

With `O=C1NC2(CCCCC2)C(=O)N1CCN(CCCl)CCCl` [SPIROMUSTINE], the GI50 is 132 µM (inactive).

Regarding `NC1=NC(c2ccccc2)CC(c2cc(Cl)cc(Br)c2O)=N1` (configuration not stated), the GI50 was 13.6 µM (inactive).

System in the next data set: not listed separately
The data set can be described thus: NIH3T3 cell viability loss – ATP luminescence, mouse fibroblasts, counter-screen, dose response (AID 2010).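 Further: cells exposed to compound for about 90 hours before reading.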 The class given is functional, cell-based. The note with it: NIH3T3. On the technique in general: The purpose of a counterscreen is to sort out artefacts and off-target activity.
Consider `O=C(/N=C1/N=C2C=CC(Br)=CN2Cc2ccccc21)c1ccc([N+](=O)[O-])cc1[N+](=O)[O-]`, for which the EC50 is > 60 µM (not active).
